Our source for the IC50 values is patent publication US20240360148A1 (SUVALENT THERAPEUTICS, INC., priority 2021, published 2024).

The target in assay [1] is SAE1 (Homo sapiens (Human), UniProt Q9UBE0+Q9UBT2). Kind of assay: SAE High Throughput Biochemical Assay (HTRF), 15 min preincubation. Conditions: read-out: 15 min preincubation HTRF IC50 (μM) Ave, SAE1 12.5 nM, ATP 100 μM. The method, boiled down: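 HTRF detection of SUMO transfer from SUMO-GST to UBC9-His (40 nM each) by SAE1 at 12.5 nM used 100 μM ATP in pH 7.5 HEPES buffer with 10 mM MgCl2 and 0.1% BSA. Enzyme and compound were preincubated 15 min at RT and the reaction ran 45 min, with readings after 2 h and overnight.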

Assay [2] has as its system sumoylation levels (SUMO 2/3 conjugates) in HCT-116 cells. Kind of assay: HCT-116 4 Hour Cell Assay (Western, SUMO 2/3 conjugates). In kind it is cell-based. As to conditions: Homo sapiens, HCT-116, 4 h, 4 h treatment, Anti-Sumo 2-3 immunoblot, read-out: HCT-116 Western 4 h IC50 (μM) Ave. The method, boiled down:
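IC50 derived from fluorescent immunoblot quantification of SUMO 2/3 conjugate bands, normalized to total protein, after non-reducing SDS-PAGE. Lysis used RIPA plus NEM; exposure was 4 h across 11 concentrations, three-fold serial dilution starting at 25 μM.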
Background: Immunoblotting shows a protein as a band on a membrane.

Structures are written as SMILES.

SAE1, sequence (Q9UBE0 whole entry): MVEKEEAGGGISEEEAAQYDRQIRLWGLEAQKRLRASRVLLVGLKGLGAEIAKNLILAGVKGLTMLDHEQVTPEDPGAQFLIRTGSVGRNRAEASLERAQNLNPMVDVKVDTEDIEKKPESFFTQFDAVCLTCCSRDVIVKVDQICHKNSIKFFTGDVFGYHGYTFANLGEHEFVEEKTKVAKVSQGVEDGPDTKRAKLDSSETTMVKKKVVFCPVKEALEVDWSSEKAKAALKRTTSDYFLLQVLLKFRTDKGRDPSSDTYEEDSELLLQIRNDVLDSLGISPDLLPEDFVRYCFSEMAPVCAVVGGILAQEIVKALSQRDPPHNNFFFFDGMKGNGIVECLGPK
SAE1, sequence (Q9UBT2 whole entry): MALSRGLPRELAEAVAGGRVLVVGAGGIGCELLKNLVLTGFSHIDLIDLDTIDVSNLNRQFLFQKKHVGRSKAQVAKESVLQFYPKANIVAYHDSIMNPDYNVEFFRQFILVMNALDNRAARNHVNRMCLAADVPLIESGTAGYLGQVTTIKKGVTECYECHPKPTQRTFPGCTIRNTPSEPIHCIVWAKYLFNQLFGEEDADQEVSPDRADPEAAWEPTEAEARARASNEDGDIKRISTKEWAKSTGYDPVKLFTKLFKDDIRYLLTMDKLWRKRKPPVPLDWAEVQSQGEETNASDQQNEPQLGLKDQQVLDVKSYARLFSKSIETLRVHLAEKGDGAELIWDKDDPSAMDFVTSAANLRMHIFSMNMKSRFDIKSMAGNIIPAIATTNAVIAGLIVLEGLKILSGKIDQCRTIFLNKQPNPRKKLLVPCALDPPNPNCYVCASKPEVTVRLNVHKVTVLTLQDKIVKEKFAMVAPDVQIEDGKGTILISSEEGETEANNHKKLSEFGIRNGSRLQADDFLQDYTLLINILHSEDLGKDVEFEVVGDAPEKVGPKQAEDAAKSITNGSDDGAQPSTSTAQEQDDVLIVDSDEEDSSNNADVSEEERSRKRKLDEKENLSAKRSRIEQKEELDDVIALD

As for `CN(C)CC#CC(=O)N1Cc2sc(C#N)cc2[C@H](c2ccccc2-c2c[nH]nc2C(F)(F)F)C1` [Example 151, (S)-6-(4-(Dimethylamino)but-2-ynoyl)-4-(2-(3-(trifluoromethyl)-1 H-pyrazol-4-yl)phenyl)-4,5,6,7-tetrahydrothieno[2,3-c]pyridine-2-carbonitrile], the IC50 in assay [1] worked out at 0.18 µM; in assay [2], 0.587 µM.
In the same order, the values of `C#CCn1cc(-c2ccccc2[C@@H]2CN(C(=O)/C=C/CN(C)C)Cc3sc(C#N)cc32)c(C(F)(F)F)n1` [Example 155, (S, E)-6-(4-(Dimethylamino)but-2-enoyl)-4-(2-(1-(prop-2-yn-1-yl)-3-(trifluoromethyl)-1 H-pyrazol-4-yl)phenyl)-4,5,6,7-tetrahydrothieno[2,3-c]pyridine-2-carbonitrile] are 3.52 µM and 0.321 µM.
Take `CN(C)C/C=C/C(=O)N1Cc2sc(C#N)cc2[C@H](c2ccccc2-c2cn(-c3c(F)cncc3Cl)nc2C(F)(F)F)C1` [Example 156, (S,E)-4-(2-(1-(3-Chloro-5-fluoropyridin-4-yl)-3-(trifluoromethyl)-1H pyrazol-4-yl)phenyl)-6-(4-(dimethylamino)but-2-enoyl)-4,5,6,7-tetrahydrothieno[2,3-c]pyridine-2-carbonitrile]: the IC50 in assay [1] is 2.91 µM; in assay [2], 0.349 µM.
In the same order, the values of `CN(C)C/C=C/C(=O)N1Cc2sc(C#N)cc2[C@H](c2ccccc2-c2cn(-c3c(F)cncc3F)nc2C(F)(F)F)C1` [Example 159, (S,E)-4-(2-(1-(3,5-Difluoropyridin-4-yl)-3-(trifluoromethyl)-1H pyrazol-4-yl)phenyl)-6-(4-(dimethylamino)but-2-enoyl)-4,5,6,7-tetrahydrothieno[2,3-c]pyridine-2-carbonitrile] are 4.52 µM and 0.128 µM.
In the same order, the values of `CC(C#N)n1cc(-c2ccccc2[C@@H]2CN(C(=O)/C=C/CN(C)C)Cc3sc(C#N)cc32)c(C(F)(F)F)n1` (stereo partly drawn) [Example 165, (4S)-4-(2-(1-(1-Cyanoethyl)-3-(trifluoromethyl)-1H-pyrazol-4-yl)phenyl)-6-((E)-4-(dimethylamino)but-2-enoyl)-4,5,6,7-tetrahydrothieno[2,3-c]pyridine-2-carbonitrile] are 3.42 µM and 1.06 µM.
In the same order, the values of `CCn1cc(-c2ccc(F)cc2C2CN(C(=O)/C=C/CN(C)C)Cc3sc(C#N)cc32)c(C(F)(F)F)n1` (centres unmarked) [Example 180, (E)-6-(4-(Dimethylamino)but-2-enoyl)-4-(2-(1-ethyl-3-(trifluoromethyl)-1 H-pyrazol-4-yl)-5-fluorophenyl)-4,5,6,7-tetrahydrothieno[2,3-c]pyridine-2-carbonitrile] are 5.29 µM and 1.15 µM.
As for `CCn1cc(C2=C(C3CN(C(=O)/C=C/CN(C)C)Cc4sc(C#N)cc43)CCCC2)c(C(F)(F)F)n1` (centres unmarked) [Example 181, (E)-6-(4-(Dimethylamino)but-2-enoyl)-4-(2-(1-ethyl-3-(trifluoromethyl)-1 H-pyrazol-4-yl)cyclohex-1-en-1-yl)-4,5,6,7-tetrahydrothieno[2,3-c]pyridine-2-carbonitrile], the IC50 is 3.16 µM in assay [1] and 0.878 µM in assay [2].
In the same order, the values of `CCn1cc(-c2c(F)cc(F)cc2C2CN(C(=O)/C=C/CN(C)C)Cc3sc(C#N)cc32)c(C(F)(F)F)n1` (centres unmarked) [Example 183, (E)-6-(4-(Dimethylamino)but-2-enoyl)-4-(2-(1-ethyl-3-(trifluoromethyl)-1 H-pyrazol-4-yl)-3,5-difluorophenyl)-4,5,6,7-tetrahydrothieno[2,3-c]pyridine-2-carbonitrile] are 2.16 µM and 0.321 µM.
As to `CCn1cc(-c2c(Cl)cc(F)cc2C2CN(C(=O)/C=C/CN(C)C)Cc3sc(C#N)cc32)c(C(F)(F)F)n1` (centres unmarked) [Example 186, (E)-4-(3-Chloro-2-(1-ethyl-3-(trifluoromethyl)-1 H-pyrazol-4-yl)-5-fluorophenyl)-6-(4-(dimethylamino)but-2-enoyl)-4,5,6,7-tetrahydrothieno[2,3-c]pyridine-2-carbonitrile], the values for the IC50 in assay [1] and in assay [2] were 6.37 µM and 2.13 µM, respectively.
In the same order, the values of `CCn1cc(-c2c(C3CN(C(=O)/C=C/CN(C)C)Cc4sc(C#N)cc43)ccc(O)c2F)c(C(F)(F)F)n1` (centres unmarked) [Example 189, (E)-6-(4-(Dimethylamino)but-2-enoyl)-4-(2-(1-ethyl-3-(trifluoromethyl)-1 H-pyrazol-4-yl)-3-fluoro-4-hydroxyphenyl)-4,5,6,7-tetrahydrothieno[2,3-c]pyridine-2-carbonitrile] are 1.67 µM and 0.46 µM.
In the same order, the values of `CCn1cc(-c2cc(NS(C)(=O)=O)ccc2C2CN(C(=O)/C=C/CN(C)C)Cc3sc(C#N)cc32)c(C(F)(F)F)n1` (centres unmarked) [Example 193, (E)-N-(4-(2-Cyano-6-(4-(dimethylamino)but-2-enoyl)-4,5,6,7-tetrahydrothieno[2,3-c]pyridin-4-yl)-3-(1-ethyl-3-(trifluoromethyl)-1 H-pyrazol-4-yl)phenyl)methanesulfonamide] are 9.08 µM and 8.85 µM.
For `CCn1cc(-c2c(C3CN(C(=O)/C=C/CN(C)C)Cc4sc(C#N)cc43)csc2C)c(C(F)(F)F)n1` (centres unmarked) [Example 199, (E)-6-(4-(Dimethylamino)but-2-enoyl)-4-(4-(1-ethyl-3-(trifluoromethyl)-1 H-pyrazol-4-yl)-5-methylthiophen-3-yl)-4,5,6,7-tetrahydrothieno[2,3-c]pyridine-2-carbonitrile], the IC50 in assay [1] came out at 2.87 µM; in assay [2], 1.26 µM.
For `CCn1cc(-c2c(C)cccc2C2CN(C(=O)/C=C/CN(C)C)Cc3sc(C#N)cc32)c(C(F)(F)F)n1` (centres unmarked) [Example 200, (E)-6-(4-(Dimethylamino)but-2-enoyl)-4-(2-(1-ethyl-3-(trifluoromethyl)-1 H-pyrazol-4-yl)-3-methylphenyl)-4,5,6,7-tetrahydrothieno[2,3-c]pyridine-2-carbonitrile], the IC50 in assay [1] was found to be 2.28 µM; in assay [2], 0.891 µM.
Turning to `CCn1cc(-c2c(Cl)cccc2C2CN(C(=O)/C=C/CN(C)C)Cc3sc(C#N)cc32)c(C(F)(F)F)n1` (centres unmarked) [Example 201, (E)-4-(3-Chloro-2-(1-ethyl-3-(trifluoromethyl)-1 H-pyrazol-4-yl)phenyl)-6-(4-(dimethylamino)but-2-enoyl)-4,5,6,7-tetrahydrothieno[2,3-c]pyridine-2-carbonitrile], the values for the half-maximal inhibitory concentration (IC50) in assay [1] and in assay [2] were 1.56 µM and 1.46 µM, respectively.
Turning to `CCn1cc(-c2cc(O)ccc2C2CN(C(=O)/C=C/CN(C)C)Cc3sc(C#N)cc32)c(C(F)(F)F)n1` (centres unmarked) [Example 203, (E)-6-(4-(Dimethylamino)but-2-enoyl)-4-(2-(1-ethyl-3-(trifluoromethyl)-1 H-pyrazol-4-yl)-4-hydroxyphenyl)-4,5,6,7-tetrahydrothieno[2,3-c]pyridine-2-carbonitrile], the IC50 is 4.75 µM in assay [1] and 0.767 µM in assay [2].
In the same order, the values of `CCn1cc(-c2c(F)cccc2[C@@H]2CN(C(=O)/C=C/CNC34CC(C3)C4)Cc3sc(C#N)cc32)c(C(F)(F)F)n1` [Example 246, (S, E)-6-(4-(bicyclo[1.1.1]pentan-1-ylamino)but-2-enoyl)-4-(2-(1-ethyl-3-(trifluoromethyl)-1 H-pyrazol-4-yl)-3-fluorophenyl)-4,5,6,7-tetrahydrothieno[2,3-c]pyridine-2-carbonitrile] are 1.65 µM and 0.483 µM.

One may read the IC50 as the concentration needed to halve the response being measured.
